Assays:
Carbonic anhydrase 9 = Carbonic anhydrase 9 (Homo sapiens, UniProt Q16790); assay: Inhibition of recombinant human CA9 incubated for 15 mins by phenol red dye based stopped flow CO2 hydration assay
Carbonic anhydrase 7 = Carbonic anhydrase 7 (Homo sapiens, UniProt P43166); assay: Inhibition of recombinant human CA7 incubated for 15 mins by phenol red dye based stopped flow CO2 hydration assay
Carbonic anhydrase 7, sequence (P43166 whole entry): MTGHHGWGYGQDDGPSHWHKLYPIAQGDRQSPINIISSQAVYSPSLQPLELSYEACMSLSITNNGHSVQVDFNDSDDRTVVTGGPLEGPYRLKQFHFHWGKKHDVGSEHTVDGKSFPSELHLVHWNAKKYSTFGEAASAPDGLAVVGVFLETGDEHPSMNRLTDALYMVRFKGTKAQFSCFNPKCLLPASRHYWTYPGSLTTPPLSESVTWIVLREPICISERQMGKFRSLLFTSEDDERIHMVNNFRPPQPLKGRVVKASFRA

SMILES | Ki (Carbonic anhydrase 9) | Ki (Carbonic anhydrase 7)
SC(C[SeH])COCc1ccccc1 (stereo not given) | 6.6 µM | –
COc1ccc(COCC(O)C[SeH])cc1 (stereo not given) | > 100 µM | > 100 µM
O[C@H](CCl)C[SeH] | > 100 µM | > 100 µM
Cc1ccc(S(=O)(=O)N[C@H](C[SeH])C(C)C)cc1 | 2.1 µM | –
CC[C@H](C)[C@@H](C[SeH])NS(=O)(=O)c1ccc(C)cc1 | > 100 µM | > 100 µM
C=CCOCC(O)C[SeH] (stereo not given) | > 100 µM | –
C=CCOCC(S)C[SeH] (stereo not given) | 38.6 µM | > 100 µM
O[C@@H](CCl)C[SeH] | 60 µM | > 100 µM
OC(C[SeH])COCc1ccccc1 (stereo not given) | 58.7 µM | –
CC(C)[C@@H](C[SeH])NC(=O)OC(C)(C)C | > 100 µM | –

Reference: ChEMBL document CHEMBL4373741, “Direct and straightforward access to substituted alkyl selenols as novel carbonic anhydrase inhibitors” (Eur J Med Chem, 2020)
